Experimental data published in patent US20210259954A1, “CILIA-TARGETING NANOPARTICLES” (Chapman University, priority 2019, published 2021).

Assays:
Pkd2 zebrafish = experiment: Pkd2 morphant zebrafish ciliopathy model (Example 1); type: in vivo
Experimental: Animal Studies. All animal procedures were performed according to the University of California Irvine or Chapman University Animal Care and Use Committee Guidelines. To eliminate biases and subjective analyses, all animal studies were performed by double-blinded operators. Wild-type zebrafish AB strains were obtained from the Zebrafish International Resource Center. Embryos were injected with 1 mM morpholino oligos (GeneTools) at the 1-2 cell stage and cultured at 28.5° C. in sterile egg water. The following morpholino sequences were used: control scrambled MO: 5′-CCTCTTACCTCAGTTACAATTTATA-3′ (SEQ ID NO:1), Pkd2: 5′-AGGACGAACGCGACTGGGCTCATC-3′ (SEQ ID NO:2). The cardiac function was assessed by placing zebrafish on their dorsal axis to examine the relative locations of the ventricle and bulbus arteriosus, blood circulation and the heartbeat. Measurements of blood flow characteristics and heart parameters were performed using a Nikon Eclipse Ti microscope. NIS-Elements High Content AR 4.30.02 (Nikon) was used for the live tracking of the speed and acceleration of a single blood cell.

LLC-PK1 cells = experiment: Intracellular and ciliary Ca2+ and NO imaging under flow or magnetic field (Example 2); type: cell-based, porcine; settings: 5HT6-mCherry-G-GECO1.0, single cell single cilium
Experimental: Cells were grown as monolayer on glass-bottomed plates to enable live microscopy imaging. […] For intracellular NO measurements, cells were loaded with 20 μM DAF-FM (Cayman Chemical) for 30 minutes at 37° C. […] Fluid shear stress was then applied to cells through […] peristaltic pumps with an inlet and outlet setup. The fluid was perfused through cell monolayers at a sub-minimal shear stress of 0.5 dyn/cm^2. […] An alnico cylindrical magnet (VWR International, PA) was used to oscillate a primary cilium. This 100-gram AlNiCo magnet produced a permanent magnetic field of 1.35 T. Once a cilium was placed on the specimen holder and in the plane of view, the magnet was mounted on the top of an inverted Nikon Ti-E microscope. The magnet was then mechanically moved with an oscillation frequency of 1.6 Hz. The movement of cilia by the magnetic field was continuously recorded for the duration of the experiment. To examine how much force the magnetic field generated onto a cilium, we calculated the movement of cilia in response to the oscillating magnetic field (Supplement). […] The shear stress ranged from 0.01 to 1.0 dyn/cm^2 and was accurately measured and controlled at all times. […] Approximately 15-20 cilia were analysed for each treatment using different fluorescence filters. […] The GFP/mCherry ratios were also calculated using Nikon tracking software.

primary cilia = experiment: In vitro cilia length, acetylated-α-tubulin immunofluorescence (Example 1); type: cell-based; settings: after 16 hours, vs corresponding controls
Experimental: Immunocytochemistry. For the in vitro cilia length measurements, cells were grown on the Formvar® polymer, as mentioned above. Primary cilia consisting of acetylated microtubule structures were measured by direct immunofluorescence with acetylated-α-tubulin staining with 0, 2, 4, 8, 16, 24 and 32 hours of incubation with different concentrations (0.1-5 μg/mL) of CT-DAu-NPs or CT-PLGA-NPs. Likewise, materials without fenoldopam loading were used as corresponding controls for the CTNDDSs (cCT-DAu-NPs and cCT-PLGA-NPs) and also fenoldopam alone used. The cells were rinsed with sodium cacodylate buffer, fixed with 3% glutaraldehyde in 0.2 M sodium cacodylate buffer for 10 minutes, and permeabilized with 1% Triton-X in sodium cacodylate for 5 min. Acetylated-α-tubulin (1:10,000 dilution, Sigma) and the secondary antibodies were also diluted in 10% FBS to decrease the background florescence; FITC fluorescence secondary antibody (1:1000; Pierce, Inc.) was used. The cells were then washed three times for 5 minutes each with cacodylate buffer and mounted with DAPI (Vector laboratories). Confocal microscopic images were obtained using an inverted Nikon Eclipse Ti confocal microscope.

[1] = tested on: Tie2Cre⋅IFT88^flox/flox mice; experiment: Working heart perfusion system, hearts of treated IFT88 mice; type: in vivo, mouse

Oc1ccc(C2CNCCc3c2cc(O)c(O)c3Cl)cc1 (stereo not drawn) [Fenoldopam, fenoldopam]
tolerability of bolus injection (Pkd2 zebrafish): tachycardia-associated death | intraciliary and cytosolic Ca^2+ signalling (LLC-PK1 cells): induced less of an increase in the intraciliary Ca^2+ signalling | cilia length (primary cilia): significantly increased cilia length | CO, cardiac output ([1]; diltiazem stress): 1857 ± 137 µL/min | EDPVR, end-diastolic pressure volume relation ([1]; diltiazem stress): 0.13 ± 0.01 mmHg/μL | EF, ejection fraction ([1]; diltiazem stress): 51.6 ± 1.7% | ESPVR, end-systolic pressure volume relation ([1]; diltiazem stress): 2.1 ± 0.1 mmHg/μL | HR, heart rate ([1]; diltiazem stress): 104 ± 20 beat/min | LV EDP, end-diastolic pressure ([1]; diltiazem stress): 5.1 ± 0.1 mmHg | LV EDV, end-diastolic volume ([1]; diltiazem stress): 40.0 ± 0.1 µL | LV ESP, end-systolic pressure ([1]; diltiazem stress): 30.2 ± 0.1 mmHg | LV ESV, end-systolic volume ([1]; diltiazem stress): 19.4 ± 0.7 µL | LV Pmax, systolic pressure ([1]; diltiazem stress): 40.2 ± 0.1 mmHg | SV, stroke volume ([1]; diltiazem stress): 20.6 ± 0.7 µL | SW, stroke work ([1]; diltiazem stress): 725 ± 20 mmHg · μL | dP/dtmax, maximum rate of LV pressure rise ([1]; diltiazem stress): 3619 ± 111 mmHg/s | dP/dtmin, maximum rate of LV pressure fall ([1]; diltiazem stress): −1372 ± 330 mmHg/s | CO, cardiac output ([1]; epinephrine stress): 7590 ± 176 µL/min | EDPVR, end-diastolic pressure volume relation ([1]; epinephrine stress): 0.13 ± 0.01 mmHg/μL | EF, ejection fraction ([1]; epinephrine stress): 78.2 ± 2.2% | ESPVR, end-systolic pressure volume relation ([1]; epinephrine stress): 10.0 ± 1.1 mmHg/μL | HR, heart rate ([1]; epinephrine stress): 241 ± 22 beat/min | LV EDP, end-diastolic pressure ([1]; epinephrine stress): 5.3 ± 0.2 mmHg | LV EDV, end-diastolic volume ([1]; epinephrine stress): 40.2 ± 0.1 µL | LV ESP, end-systolic pressure ([1]; epinephrine stress): 64.5 ± 0.2 mmHg | LV ESV, end-systolic volume ([1]; epinephrine stress): 8.7 ± 0.9 µL | LV Pmax, systolic pressure ([1]; epinephrine stress): 56.0 ± 0.3 mmHg | SV, stroke volume ([1]; epinephrine stress): 31.4 ± 0.8 µL | SW, stroke work ([1]; epinephrine stress): 2538 ± 16 mmHg · μL | dP/dtmax, maximum rate of LV pressure rise ([1]; epinephrine stress): 17206 ± 578 mmHg/s | dP/dtmin, maximum rate of LV pressure fall ([1]; epinephrine stress): -3180 ± 120 mmHg/s | CO, cardiac output ([1]; vehicle): 3780 ± 437 µL/min | EDPVR, end-diastolic pressure volume relation ([1]; vehicle): 0.13 ± 0.01 mmHg/μL | EF, ejection fraction ([1]; vehicle): 65.5 ± 3.5% | ESPVR, end-systolic pressure volume relation ([1]; vehicle): 5.4 ± 0.7 mmHg/μL | HR, heart rate ([1]; vehicle): 144 ± 32 beat/min | LV EDP, end-diastolic pressure ([1]; vehicle): 5.1 ± 0.1 mmHg | LV EDV, end-diastolic volume ([1]; vehicle): 40.1 ± 0.1 µL | LV ESP, end-systolic pressure ([1]; vehicle): 54.3 ± 1.0 mmHg | LV ESV, end-systolic volume ([1]; vehicle): 13.8 ± 1.4 µL | LV Pmax, systolic pressure ([1]; vehicle): 72.4 ± 1.3 mmHg | SV, stroke volume ([1]; vehicle): 26.3 ± 1.4 µL | SW, stroke work ([1]; vehicle): 1767 ± 56 mmHg · μL | dP/dtmax, maximum rate of LV pressure rise ([1]; vehicle): 7819 ± 140 mmHg/s | dP/dtmin, maximum rate of LV pressure fall ([1]; vehicle): −1658 ± 190 mmHg/s
